Ki data for 72 compounds are collected here from patent US20090270371A1, “QUINOLINE DERIVATIVES USEFUL IN THE TREATMENT OF MGLUR5 RECEPTOR-MEDIATED DISORDERS” (priority 2005, published 2009).

Some results are limits rather than exact numbers.

For this assay, the target named is T1, rat mGluR5 receptors (Rattus norvegicus, UniProt P31424).
T1 construct: rat cerebro-cortical membrane preparation was used; from tissue; host or cells: rat cerebral cortex membranes
T1 sequence (P31424 21-1203): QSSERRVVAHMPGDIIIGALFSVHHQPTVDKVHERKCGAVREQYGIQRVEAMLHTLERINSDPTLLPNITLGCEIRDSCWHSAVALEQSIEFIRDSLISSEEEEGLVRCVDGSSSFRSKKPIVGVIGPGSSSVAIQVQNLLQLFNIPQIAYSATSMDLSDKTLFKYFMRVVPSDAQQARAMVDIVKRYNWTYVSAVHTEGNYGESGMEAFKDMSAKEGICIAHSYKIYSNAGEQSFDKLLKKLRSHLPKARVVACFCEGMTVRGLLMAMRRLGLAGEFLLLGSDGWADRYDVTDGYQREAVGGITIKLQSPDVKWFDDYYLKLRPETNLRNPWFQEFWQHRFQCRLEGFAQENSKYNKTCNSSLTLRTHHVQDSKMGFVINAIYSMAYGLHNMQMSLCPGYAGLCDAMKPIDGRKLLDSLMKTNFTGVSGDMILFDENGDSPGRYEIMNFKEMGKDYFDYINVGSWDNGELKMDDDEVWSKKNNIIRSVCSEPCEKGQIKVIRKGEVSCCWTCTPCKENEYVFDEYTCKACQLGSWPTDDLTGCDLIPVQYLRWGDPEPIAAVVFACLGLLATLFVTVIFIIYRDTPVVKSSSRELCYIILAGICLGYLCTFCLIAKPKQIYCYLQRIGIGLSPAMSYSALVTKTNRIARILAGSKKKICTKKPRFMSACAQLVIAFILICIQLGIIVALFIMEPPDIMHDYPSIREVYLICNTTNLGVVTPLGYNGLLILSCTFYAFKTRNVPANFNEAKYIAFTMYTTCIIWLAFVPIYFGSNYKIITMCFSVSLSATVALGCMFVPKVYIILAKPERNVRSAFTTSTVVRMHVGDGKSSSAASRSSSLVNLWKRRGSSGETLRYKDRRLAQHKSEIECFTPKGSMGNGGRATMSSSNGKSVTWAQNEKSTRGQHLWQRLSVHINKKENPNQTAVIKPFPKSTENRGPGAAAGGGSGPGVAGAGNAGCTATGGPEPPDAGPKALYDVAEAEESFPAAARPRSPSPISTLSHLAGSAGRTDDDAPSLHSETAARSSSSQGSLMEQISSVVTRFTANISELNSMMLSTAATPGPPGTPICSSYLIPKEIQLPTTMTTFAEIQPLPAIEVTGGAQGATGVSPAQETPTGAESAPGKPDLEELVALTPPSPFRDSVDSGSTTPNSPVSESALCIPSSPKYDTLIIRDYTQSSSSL
Nature of the assay: mGluR5 receptor binding test, rat cerebro-cortical membrane preparation, [3H]-M-MPEP. The settings on record: affinity for rat mGluR5 receptors; [3H]-M-MPEP (2 nM) radioligand. As for the experimental part:
The mGluR5 receptor binding was determined according to the modified method of Gasparini et. al. (Bioorg. Med. Chem. Lett., 2000, 12, 407). Based on the high homology between the human and rat mGluR5 receptors, rat cerebro-cortical membrane preparation was used to determine the binding characteristics of the reference compounds and novel compounds to the rat mGluR5. The A18 cell line expressing hmGluR5a (purchased from Euroscreen) was used to determine binding characteristics of the chemical compounds to the human mGluR5a receptor. [^3H]-M-MPEP (2 nM) was used as radioligand. The nonspecific binding was determined in the presence of 10 μM M-MPEP.
Broadly, the Ki is a measure of affinity in units of concentration, obtained from inhibition or displacement. Lower therefore signals higher affinity. `COc1ccc2ncc(S(=O)(=O)c3ccc(Cl)cc3)c(NCc3ccccc3)c2c1` [Compound 78] had a Ki of over 500 nM.

Take `Cc1ccc(S(=O)(=O)c2cnc3ccc(C)cc3c2NCc2ccccc2)cc1` [Compound 28]: the Ki was over 500 nM.

The compound `CC1CCN(c2c(S(=O)(=O)c3ccccc3)cnc3c(F)cccc23)CC1` [Compound 230] gave a Ki of over 500 nM.

Compound `CCOC(=O)N1CCN(c2c(S(=O)(=O)c3ccc(Cl)cc3)cnc3ccc(C)cc23)CC1` [Compound 131] yielded a Ki of 200 to 500 nM.

On to `CCc1ccc2ncc(S(=O)(=O)c3ccc(OC)cc3)c(N3CCCCC3)c2c1` [Compound 134], for which the Ki is over 500 nM.

As to `O=S(=O)(c1ccccc1)c1cnc2ccc(Cl)cc2c1N1CCCC1` [Compound 37], the Ki was over 500 nM.

`Cc1ccc(S(=O)(=O)c2cnc3ccc(C)cc3c2NCc2ccc(F)cc2)cc1` [Compound 29]: the Ki was over 500 nM.

`O=S(=O)(c1ccccc1)c1cnc2ccccc2c1N1CCN(c2cccc(Cl)c2)CC1` [Compound 71] had a Ki of over 500 nM.

`O=S(=O)(c1ccc(Cl)cc1)c1cnc2ccccc2c1N1CCCCC1` [Compound 43] came in with a Ki of over 500 nM.

Take `COc1ccc2ncc(S(=O)(=O)c3cccc(Cl)c3)c(N3CCC(C)CC3)c2c1` [Compound 246]: the Ki was over 500 nM.

In turn, `COc1ccc(S(=O)(=O)c2cnc3cc(F)ccc3c2N2CCOCC2)cc1` [Compound 313] registered a Ki of over 500 nM.

As for `Cc1ccc(S(=O)(=O)c2cnc3ccc(C)cc3c2N2CCOCC2)cc1` [Compound 104], the Ki was over 500 nM.

In the case of `Cc1ccc(S(=O)(=O)c2cnc3cc(F)ccc3c2N2CCOCC2)cc1F` [Compound 309], the Ki lay in the range of 200 to 500 nM.

The compound `O=S(=O)(c1cc(F)cc(F)c1)c1cnc2ccc(Cl)cc2c1N1CCOCC1` [Compound 294] came in with an inhibition constant Ki of over 500 nM.

`COc1ccc2ncc(S(=O)(=O)c3ccccc3)c(N3CCN(c4cccc(C)c4C)CC3)c2c1` [Compound 69] had a Ki of over 500 nM.

`O=S(=O)(c1ccccc1)c1cnc2ccc(Cl)cc2c1N1CCOCC1` [Compound 291] registered a Ki of over 500 nM.

`O=S(=O)(c1ccc(Cl)c(Cl)c1)c1cnc2ccc(F)cc2c1N1CCOCC1` [Compound 286]: the inhibitory constant (Ki) was 200 to 500 nM.

`CC1CCN(c2c(S(=O)(=O)c3ccc(F)c(Cl)c3)cnc3ccc(F)cc23)CC1` [Compound 349] registered a Ki of 200 to 500 nM.

In the case of `CC1CCN(c2c(S(=O)(=O)c3ccc(Cl)cc3)cnc3ccc(Cl)cc23)CC1` [Compound 213], the Ki was under 200 nM.

As to `COc1ccc2ncc(S(=O)(=O)c3ccc(Cl)cc3)c(N3CCCCCC3)c2c1` [Compound 112], the Ki is over 500 nM.

Regarding `COc1ccc(S(=O)(=O)c2cnc3cc(F)ccc3c2N2CCC(C)CC2)cc1OC` [Compound 182], the Ki was under 200 nM.

For `CCc1ccc2ncc(S(=O)(=O)c3ccccc3)c(N3CCCC3)c2c1` [Compound 35], the Ki was over 500 nM.

For the compound `Cc1ccc2ncc(S(=O)(=O)c3cccc(F)c3)c(N3CCC(C)CC3)c2c1` [Compound 159], the Ki is under 200 nM.

Turning to `CC1CCN(c2c(S(=O)(=O)c3cc(F)cc(F)c3)cnc3cc(F)ccc23)CC1` [Compound 170], the Ki is 200 to 500 nM.

Turning to `COc1ccc2ncc(S(=O)(=O)c3cccc(F)c3)c(N3CCC(C)CC3)c2c1` [Compound 243], the Ki was 200 to 500 nM.

Compound `Cc1cc(C)cc(S(=O)(=O)c2cnc3cc(F)ccc3c2N2CCOCC2)c1` [Compound 317] registered a Ki of 200 to 500 nM.

As for `O=S(=O)(c1ccccc1)c1cnc2ccccc2c1Nc1ccccc1` [Compound 20], the inhibition constant Ki was over 500 nM.

`COc1cc2ncc(S(=O)(=O)c3ccccc3)c(N3CCOCC3)c2cc1OC` [Compound 7] yielded a Ki of over 500 nM.

On to `COc1cccc(S(=O)(=O)c2cnc3cc(Cl)ccc3c2N2CCOCC2)c1` [Compound 326], for which the Ki is 200 to 500 nM.

On to `COc1ccc(S(=O)(=O)c2cnc3ccc(C)cc3c2N2CCC(C)CC2)cc1` [Compound 157], for which the Ki is 200 to 500 nM.

In the case of `CCOC(=O)C1CCN(c2c(S(=O)(=O)c3ccc(C)cc3)cnc3ccc(F)cc23)CC1` [Compound 55], the Ki was over 500 nM.

The compound `Cc1ccc(S(=O)(=O)c2cnc3cc(F)ccc3c2N2CCC(C)CC2)cc1F` [Compound 178] returned a Ki of under 200 nM.

Take `COc1ccc(S(=O)(=O)c2cnc3ccc(Cl)cc3c2NCc2ccccc2)cc1` [Compound 11]: the Ki is over 500 nM.

Take `Cc1ccc2ncc(S(=O)(=O)c3cc(F)cc(F)c3)c(N3CCOCC3)c2c1` [Compound 255]: the Ki is over 500 nM.

Turning to `Cc1ccc(S(=O)(=O)c2cnc3ccccc3c2Nc2ccc3c(c2)OCCO3)cc1` [Compound 27], the Ki is over 500 nM.

`Cc1ccc(S(=O)(=O)c2cnc3ccccc3c2N2CCOCC2)cc1` [Compound 101] came in with a Ki of over 500 nM.

Regarding `Cc1ccc(S(=O)(=O)c2cnc3cc4c(cc3c2N2CCCCC2)OCCO4)cc1` [Compound 42], the inhibition constant (Ki) was over 500 nM.

Compound `COc1ccc2ncc(S(=O)(=O)c3ccc(F)cc3)c(N3CCC(C)CC3)c2c1` [Compound 241] showed a Ki of over 500 nM.

Compound `CCOc1ccc2ncc(S(=O)(=O)c3ccc(C)cc3)c(N3CCN(c4ccccc4F)CC3)c2c1` [Compound 117] displayed a Ki of over 500 nM.

`Cc1ccc2ncc(S(=O)(=O)c3ccc(Cl)cc3)c(N3CCN(c4ccccc4)CC3)c2c1` [Compound 123] had an inhibition constant (Ki) of over 500 nM.

`CCOc1ccc2ncc(S(=O)(=O)c3ccc(OC)cc3)c(N3CCC(C)CC3)c2c1` [Compound 102] had an inhibitory constant (Ki) of over 500 nM.

Take `COc1cccc(Nc2c(S(=O)(=O)c3ccc(C)cc3)cnc3ccccc23)c1` [Compound 113]: the Ki was over 500 nM.

Take `CC1CCN(c2c(S(=O)(=O)c3ccc(C#N)cc3)cnc3cc(Cl)ccc23)CC1` [Compound 204]: the inhibitory constant (Ki) is 200 to 500 nM.

As to `Cc1ccc(S(=O)(=O)c2cnc3ccc(C)cc3c2N2CCC(C(N)=O)CC2)cc1` [Compound 59], the Ki was over 500 nM.

Turning to `Cc1ccc2ncc(S(=O)(=O)c3ccc(F)c(F)c3)c(N3CCOCC3)c2c1` [Compound 268], the Ki is over 500 nM.

`CCOC(=O)C1CCCN(c2c(S(=O)(=O)c3ccc(C)cc3)cnc3ccc(F)cc23)C1` (stereo not drawn) [Compound 99] displayed a Ki of over 500 nM.

As to `CC1CCN(c2c(S(=O)(=O)c3cccc(F)c3)cnc3c(F)cccc23)CC1` [Compound 232], the Ki is 200 to 500 nM.

Turning to `O=S(=O)(c1ccccc1)c1cnc2cc3c(cc2c1N1CCN(c2ccccc2)CC1)OCCO3` [Compound 115], the Ki was over 500 nM.

As for `CC1CCN(c2c(S(=O)(=O)c3ccc(F)cc3)cnc3ccc(C#N)cc23)CC1` [Compound 252], the Ki lay within 200 to 500 nM.

The compound `O=S(=O)(c1ccc(Cl)cc1)c1cnc2ccccc2c1N1CCN(c2ccc(F)cc2)CC1` [Compound 72] had a Ki of over 500 nM.

The compound `Cc1ccc(S(=O)(=O)c2cnc3ccccc3c2N2CCC3(CC2)OCCO3)cc1` [Compound 97] showed a Ki of over 500 nM.

With `Cc1ccc2ncc(S(=O)(=O)c3cccc(Cl)c3)c(N3CCC(C)CC3)c2c1` [Compound 163], the Ki is under 200 nM.

On to `CCc1ccc2ncc(S(=O)(=O)c3ccc(Cl)cc3)c(N3CCOCC3)c2c1` [Compound 105], for which the Ki was over 500 nM.

For `Cc1ccc(S(=O)(=O)c2cnc3cc(Cl)ccc3c2N2CCC(C)CC2)cc1F` [Compound 203], the inhibition constant (Ki) is under 200 nM.

`O=S(=O)(c1ccc(Cl)cc1)c1cnc2ccccc2c1N1CCN(Cc2ccccc2)CC1` [Compound 79] came in with a Ki of 200 to 500 nM.

In turn, `COc1ccc(S(=O)(=O)c2cnc3c(F)cccc3c2N2CCC(C)CC2)cc1` [Compound 229] yielded a Ki of 200 to 500 nM.

Turning to `COc1ccc(S(=O)(=O)c2cnc3ccc(F)cc3c2N2CCOCC2)cc1` [Compound 282], the Ki is over 500 nM.

Consider `O=S(=O)(c1ccccc1)c1cnc2ccccc2c1N1CCCCC1` [Compound 5], for which the Ki was in the range of 200 to 500 nM.

Consider `CC1CCN(c2c(S(=O)(=O)c3ccc(F)c(F)c3)cnc3c(F)cccc23)CC1` [Compound 238], for which the Ki is under 200 nM.

Compound `N#Cc1cccc(S(=O)(=O)c2cnc3ccc(Cl)cc3c2N2CCOCC2)c1` [Compound 299] gave an inhibitory constant (Ki) of over 500 nM.

`Cc1cc(C)cc(S(=O)(=O)c2cnc3ccc(C)cc3c2N2CCC(C)CC2)c1` [Compound 168] returned a Ki of 200 to 500 nM.

In turn, `CCOC(=O)C1CCN(c2c(S(=O)(=O)c3ccc(Cl)cc3)cnc3ccc(CC)cc23)CC1` [Compound 53] registered a Ki of under 200 nM.

Turning to `COc1ccc2ncc(S(=O)(=O)c3ccc(Cl)c(Cl)c3)c(N3CCOCC3)c2c1` [Compound 278], the inhibition constant Ki was over 500 nM.

`COc1ccc(S(=O)(=O)c2cnc3ccc(Cl)cc3c2N2CCC(C)CC2)cc1OC` [Compound 225] had a Ki of 200 to 500 nM.

`O=S(=O)(c1ccc(Cl)cc1)c1cnc2cc(F)ccc2c1N1CCOCC1` [Compound 305] yielded a Ki of over 500 nM.

The compound `Cc1ccc2ncc(S(=O)(=O)c3cc(Cl)cc(Cl)c3)c(N3CCOCC3)c2c1` [Compound 264] showed a Ki of 200 to 500 nM.

Regarding `COc1ccc2ncc(S(=O)(=O)c3ccc(C)c(F)c3)c(N3CCC(C)CC3)c2c1` [Compound 247], the Ki lay within 200 to 500 nM.

`Cc1ccc2ncc(S(=O)(=O)c3ccc(C)c(F)c3)c(N3CCC(C)CC3)c2c1` [Compound 165] had a Ki of under 200 nM.

Regarding `CCc1ccc2ncc(S(=O)(=O)c3ccccc3)c(N3CCN(CC)CC3)c2c1` [Compound 63], the inhibition constant (Ki) was over 500 nM.

For the compound `Cc1ccc(S(=O)(=O)c2cnc3cc(Cl)ccc3c2N2CCOCC2)cc1Cl` [Compound 329], the Ki is under 200 nM.

`COc1ccc2ncc(S(=O)(=O)c3ccccc3)c(N3CCOCC3)c2c1` [Compound 269] had a Ki of 200 to 500 nM.

For `Cc1ccc(S(=O)(=O)c2cnc3c(F)cccc3c2N2CCC(C)CC2)cc1` [Compound 235], the Ki was under 200 nM.
